Our source for the ΔGassociation values is paper PMC1322272 (2005).

The assay deals with 35mer RNA aptamer (RNA, aptamer) GGCGUGUAGGAUAUGCUUCGGCAGAAGGACACGCC
In words: fluorescence quenching of ligand. As to conditions: 50 mM NaCl, 10 mM MgCl2; 100 mM HEPES, 295 K; 1 µM ligand, RNA titrated.

With `Cc1cc2nc3c(=O)[nH]c(=O)nc-3n(C[C@H](O)[C@H](O)[C@H](O)COP(=O)(O)O)c2cc1C`, the ΔGassociation was -8.84 ± 0.24 kcal/mol.
